The subject of assay [1] is cultured cortical neurons. As to the kind of experiment: OGD-induced Ca2+ overload and neuronal death, Fura-2 ratio Ca2+ imaging. In kind it is cell-based, mouse. The settings on record: for OGD-mediated neuronal death: WT neurons, 10 μM overnight. As for the experimental part:
FIGS. 6C-6E show the effects of TAT-EE3 on Ca2+ overload and neuronal death caused by OGD. Cultured WT and gM2KO cortical neurons were treated with 10 μM TAT-SC and TAT-EE3 for overnight before experiments.
Mice pups at P0 were euthanized based on animal protocol. Whole brain was dissected out immediately and immersed in ice-cold Hank's Balanced Salt Solution (HBSS). Meninges were removed thoroughly, and tissue of different brain areas was taken based on purposes. Brain tissue was cut into small pieces and digested with 0.25% trypsin (Thermal Fisher Scientific, 15090-046) in HBSS at 37° C. for 20 min. Digestion solution was quickly removed, and tissue pellets are washed with Neurobasal® Medium (Thermal Fisher Scientific, 21103-049) for 3 times. Cells were resuspended with appropriate amount of Neurobasal® Medium supplemented with 2% B27® supplement (Thermal Fisher Scientific, 17504-044), 3% horse serum (Thermal Fisher Scientific, 16050114), 0.25% L-glutamine (Thermal Fisher Scientific, 25030-081) and 1% penicillin/streptomycin (Thermal Fisher Scientific, 15140-122). Isolated cells were counted and plated on coverslips pre-coated with poly-L-lysine (Sigma-Aldrich, P4707) at a density about 500×10^3 cells/cm2 for OGD and H2O2 treatment, and 100×10^3 cells/cm2 for current recording. Cytosine arabinoside (Sigma-Aldrich, C1768) was added to maintain a concentration at 1 μM to inhibit the proliferation of non-neuronal cells. 24 h after plating, culture medium was changed to Neurobasal® Medium supplemented with 2% B27® supplement, 0.25% L-glutamine and 1% penicillin/streptomycin. The concentration of Cytosine arabinoside (araC) was increased to 2 μM. Medium was changed every 3 days. OGD and H2O2 treatment was conducted at 7th day of culture, and current recording was conducted at 7th, 10th and 14th day of culture.
Oxygen-glucose deprivation (OGD) was achieved by replace the glucose in aCSF with sucrose, and 95% N2 and 5% CO2 was used to equilibrate sucrose-aCSF to displace oxygen. This condition typically yielded a pO2 of <5 mm Hg in the imaging chamber (Thompson, R. J., Zhou, N., and Mac Vicar, B. A. (2006). Ischemia opens neuronal gap junction hemichannels. Science 312, 924-27). At least 10 min was allowed for neurons to adapt to the change from culture medium to aCSF before OGD was applied.
Changes of intracellular Ca2+ was measured using ratio Ca2+ imaging as we describe previously (Du, J., Xie, J., Zhang, Z., Tsujikawa, H., Fusco, D., Silverman, D., Liang, B., and Yue, L. (2010). TRPM7-mediated Ca2+ signals confer fibrogenesis in human atrial fibrillation. Circulation research 106, 992-1003). In brief, Fura-2 AM (Thermal Fisher Scientific, F1221) was dissolved in DMSO to make a stock concentration at 1 mM. Pre-warmed Neurobasal® Medium (Thermal Fisher Scientific, 21103-049) was used to dilute Fura-2 AM to a working concentration at 2.5 μM, and 0.02% Pluronic™ F-127 (Thermal Fisher Scientific, P3000MP) was added to facilitate loading of Fura-2 AM. Cells plated on 25 mm glass coverslips were washed using pre-warmed PBS for 3 times, and then incubated with 2 ml of Fura-2 AM working solution for 30˜45 min at 37° C. […]
Ca2+ influx was measured by perfusing the cells with Tyrode's solution for transfected HEK293T cells or aCSF for neurons under different conditions. […] Fluorescence intensities at 510 nm with 340 nm and 380 nm excitation were collected at a rate of 1 Hz using CoolSNAP HQ2 (Photometrics) and data were analyzed using NIS-Elements (Nikon). […]

The subject of assay [2] is cultured cortical neurons. Briefly: Mitochondrial function under OGD, Rh123 de-quenching assay. The settings on record: WT neurons; 10 μM peptide overnight; 30 min OGD. In kind it is cell-based, mouse. On the procedure:
FIGS. 6F-6G show the effects of TAT-EE3 on mitochondrial function evaluated using R123 de-quenching assay. Cultured cortical from gM2KO mice, nM2KO mice and WT control littermates were incubated with 10 μM TAT-SC or TAT-EE3 for overnight before OGD exposure. […] External perfusion solution aCSF containing no Ca2+ (No Ca2+) was used as a control. WT neuron without OGD exposure was used as a control (WT control) to illustrate the rapid photo bleaching of Rh123. […] The accumulated numbers of neurons in each group for data analysis were from 3˜5 independent experiments using neurons isolated from 3 mice/group (***, p<0.001; ANOVA, Bonferroni's test; mean±SEM).
Mice pups at P0 were euthanized based on animal protocol. Whole brain was dissected out immediately and immersed in ice-cold Hank's Balanced Salt Solution (HBSS). […] Isolated cells were counted and plated on coverslips pre-coated with poly-L-lysine (Sigma-Aldrich, P4707) at a density about 500×10^3 cells/cm2 for OGD and H2O2 treatment, and 100×10^3 cells/cm2 for current recording. […]
Mitochondria function was evaluated using Rhodamine-123 dequenching as previously reported. […]
Fluorescence intensities at 509 nm with excitation at 488 nm was collected every 15 s for 30 min using CoolSNAP HQ2 (Photometrics) and data were analyzed using NIS-Elements (Nikon).

Where [3] appears, read: pretreatment 10 μM overnight, F340/380.

“TAT-EE3: membrane permeable disrupting peptide, sequence YGRKKRRQRRREEDTDSSEEMLALAEE (SEQ ID NO: 4)”: the OGD-mediated neuronal death in assay [1] (30 min OGD, WT without TAT-EE3 10.6%) was 3.6%; in assay [1] (60 min OGD, WT without TAT-EE3 47.6%) it was 9.9%; in assay [1] (90 min OGD, WT without TAT-EE3 70.5%) it was 45.2%. The “OGD-induced changes of intracellular Ca2+ in TRPM2-KO neurons” value in assay [1] (setting [3]) was “not in TRPM2-KO neurons”. The “OGD-induced changes of intracellular Ca2+ in WT neurons” value in assay [1] (setting [3]) is “significantly reduced”. Further, the “mitochondrial membrane depolarization induced by OGD (Rh123 fluorescence)” value in assay [2] was “markedly inhibited”.

The values above are taken from patent publication US20250235501A1, “Methods and Compositions for Treating or Preventing Neurological Injury or Neurological Disorders” (University of Connecticut, priority 2024, published 2025).
